The test system of data set [1] is influenza A/Texas/36/91 (H1N1). The data set is described as follows: Efficacy of selected iminosugars in mice; Influenza A/Texas/36/91 (H1N1) challenge. Type of data set: in vivo, BALB/c mice. Particulars: for Survival versus untreated/vehicle control group / MTD / Survival rate: 100 mg/kg oral TID for 10 days; for MTD / Survival rate: infected ~1 LD90. The protocol:
(§1) Study Summary: This study analyzed the toxicity and efficacy of UV-8, UV-9, UV-10, UV-11, and UV-12 in mice during an H1N1 influenza infection. […] In the current study, we examined delivery doses of UV-4B. UV-8, UV-9, UV-10. UV-11 and UV-12 at 100 mg/kg, delivered ter in die by the oral route (intragastric via oral gavage or IG. Small groups (n=3) that were included to examine gross toxicity received 100 mg/kg of the iminosugars but without a viral challenge. UV-4B, UV-8. UV-9, UV-10. UV-11 or UV-12 was delivered to the animals starting at 1 hour before intranasal infection (IN) with ˜1 LD90 of influenza A/Texas/36/91 (H1N1). Animals were then treated TID for 10 days total (days 0-9 post infection). Efficacy was evaluated by comparing survival, temperature changes, and weight gain/loss to an infected untreated control group.
This study aimed to determine the efficacy of UV-8. UV-9, UV-10, UV-11, and UV-12 when administered orally at 100 mg/kg TID against a lethal intranasal infection with influenza virus A/Texas/36/91 (H1N1) in the BALB/c mouse model. In addition to the efficacy arm, each of the iminosugars was tested in a small group of animals with the same treatment regimen (100 mg/kg, oral gavage, TID) in the absence of a viral infection to examine gross toxicity of each analog (general health, weight, temperature, and mortality evaluations).
UV-8, -9, -10, -11, -12, and UV-4B were prepared in H2O at 20 mg/ml for a delivery dose of 100 mg/kg, assuming ˜20 g mice given 0.1 mL of compound. Groups of BALB/c mice were treated at one hour before (−1 h) intranasal infection with ˜1 LD90 of INFV A/Texas/36/91 (H1N1) and then compounds were administered three times daily for a total of 10 days (see Table 12 for study design summary). Weights, temperature, and survival were monitored and used for evaluation of protective efficacy and toxicity of each analog.
3. The groups of mice challenged with influenza were anesthetized with 5% Isofluorene and maintained at 2.5% prior to intranasal inoculation with ˜1 LD90 of INFV in 100 μL PBS.
1. Mice were treated starting at 1 hour before infection with 100 μL of compound in H2O (see Table 12 for dosing regimens) three times a day for 10 days total with 100 mg/kg of UV-4B, UV-8, UV-9, UV-10, UV-11, or UV-12 compound given by the oral route (intragastric via oral gavage). 2. After dosing, mice were returned to their cages and monitored for any distress related to dosing.
(§2) 1. Mice were observed through 13 days post infection (14 days total, 0-13 days post infection).
(§3) 2. Mice were weighed daily on an Ohause scale and the weights were recorded.
3. All animals had chips implanted that monitored the body temperature. The temperatures were recorded daily.
4. Survival and health of each mouse was evaluated three times a day using a scoring system of 1-7.
5. Mice were euthanized when scored at 5 or above (Very Sick; Very Rufftled Coat; Closed, inset eyes; Slow to no movement; Will return to upright position if put on its side; extremely lethargic).

For data set [2] the following is noted: 100 mg/kg oral TID; for Survival without a viral challenge: uninfected, n=3.
The test system of a further data set is H1N1. The data set can be described thus: Previous studies: oral UV-4B TID at 100 mg/kg against H1N1. The class given is in vivo. The note with it: oral TID at 100 mg/kg. Here is the method:
as §1

In data set [3] the test system is influenza A/Texas/36/91 (H1N1). The data set can be described thus: Efficacy of UV-12 and UV-28 against lethal INFV A/Texas/36/91 (H1N1) challenge in mice. Type of data set: in vivo, BALB/c mice. Particulars: for % Survival / Mean Survival: ~1LD90 intranasal; for Health score recovery of infected mice: 100 mg/kg TID; for Weight recovery of infected mice: treated infected mice. Here is the method:
Study Summary: This study tested the ability of iminosugars UV-12 and UV-28 to protect mice from lethal influenza infection (˜1LD90 of influenza A/Texas/36/91 (H1N1) administered intranasally). Compounds were delivered 30-60 minutes prior to viral challenge via the oral (IG) route at 100 or 40 mg/kg and continued three times daily for 10 days. The mice used were ˜20 gram, 6-8 week old female BALB/c mice in groups of 10 for efficacy (a summary of the study groups is shown in Table 1). Temperature and weights were taken daily. Endpoint was day 14 post infection, death, or euthanasia. Animals displaying severe illness as determined by >30% weight loss, extreme lethargy, or paralysis were euthanized.
This study tested the ability of UV-12 and UV-28 to protect mice from lethal influenza infection. The mice used were 6-8 week old female BALB/c mice in groups of 10 (see Table 5 below). Mice were treated with 100 or 40 mg/kg three times daily (TID) via IG route starting approximately 30-60 minutes prior to challenge. Mice were challenged with ˜1 LD90 of influenza A/Texas/36/91 (H1N1) administered intranasally (IN). Endpoint was day 14 post infection, death, or euthanasia. Animals displaying severe illness as determined by >30% weight loss, extreme lethargy, or paralysis were euthanized. Temperature and weights were taken daily.
3. The groups of mice challenged with INFV were infected via intranasal (IN) inoculation with ˜1×LD90 in 100 μL of a 1:500 dilution of INFV in PBS under light anesthesia (Isoflurane).
1. Mice were treated with 100 or 40 mg/kg of test article given by the IG route in 100 μL of water (see Table 5 for dosing regimens) three times daily for 10 days.
as §2, §3
3. All animals had chips implanted at least 3 days prior to virus challenge that monitored the body temperature. The temperatures were recorded daily.
4. Survival and health of each mouse was evaluated once time a day using a scoring system of 1-7.
FIG. 1 is a plot presenting survival data of infected mice grouped by treatment. The survival data plotted in FIG. 1 were analyzed using the Mantel-Cox (Log rank) test in GraphPad Prism.

In a further data set the test system is DENV2 Strain S221. The data set can be described thus: Survival analysis of UV-12 in A129 ADE model of dengue infection. Type of data set: in vivo, A129 mice. Particulars: 100 mg/kg/dose orally 3x per day for 7 days, first dose 1 hr before IV challenge. From the text:
Purpose: This study determined the efficacy of UV-12 in promoting survival of mice challenged with dengue virus. Compound were given by the oral route (3× per day intragastric via oral gavage—IG) for a total number of 7 days after the start of dosing. The experiment used the A129 ADE model of infection. (Prestwood T R, Morar M M, Zellweger R M, Miller R, May M M, Yauch L E, Lada S M. Shresta S. Gamma interferon (IFN-γ) receptor restricts systemic dengue virus replication and prevents paralysis in IFN-α/β receptor-deficient mice. J Virol. 2012 December; 86(23):12561-70.) Animals received the virus challenge dose ˜1 LD90 on day 0. The first dose was given 0.5-1 hr pre-virus challenge. Survival was measured until 30 days after infection.
Mice: Sex matched 5-6 weeks old A129 (129/SV IFN-α, -β receptor^−/−)
Iminosugar: Orally 3× day, (gavage (IG)) every 8 hours
Antibody and Iminosugar Compound were given simultaneously, then virus within 30 minutes
Antibody: 100 μg 2H2 (IgG2a anti-DENV1-4 prM) from ATCC, day 0 and day 1 in 40 ul
Virus: DENV2 Strain S221 (v512) (Zellweger R M, Prestwood T R, Shresta S.
Dose: 1E11 GE (genomic equivalents) per animal
Animal survival. Animals displaying severe illness (as determined by 20% weight loss, extreme lethargy, ruffled coat, or paralysis) are euthanized.
FIG. 5 presents results of this study. […]

Entries after “also recorded” stand apart in the source; their conditions may differ.

Experimental findings from patent US10144727B2, “Deoxynojirimycin derivatives and methods of their using” (priority 2013, dated 2018) are described below.

For `COC(=O)CCCCCCCCN1C[C@H](O)[C@@H](O)[C@H](O)[C@H]1CO` [UV-10], in data set [1], the “Survival versus untreated/vehicle control group” value is reported as “did not show any improvement in survival”, the MTD worked out at 7.5 days and the Survival rate is 0%. In addition, the “Survival without a viral challenge” value in data set [2] was found to be 100%.

Take `COCCCCCCCCCN1C[C@H](O)[C@@H](O)[C@H](O)[C@H]1CO` [UV-4B, N-9-methoxynonyl-deoxynojirimycin, reference compound]: in data set [1], the “Survival versus untreated/vehicle control group” value is listed as “significant increase in survival” and the Survival rate came out at 100%. Also, in the data set with H1N1, the “Efficacy against H1N1” value is reported as “resulted in efficacy” and the Signs of toxicity entry is listed as “did not show any discernible signs of toxicity”.

As for `COCCCCCCCOC(=O)N1C[C@H](O)[C@@H](O)[C@H](O)[C@H]1CO` [UV-9], in data set [1], the “Survival versus untreated/vehicle control group” value is given as “did not show any improvement in survival”, the MTD is 7 days and the Survival rate is 0%. The “Survival without a viral challenge” value in data set [2] is given as 100%.

For `COC(C)(C)CCCCCCCCN1C[C@H](O)[C@@H](O)[C@H](O)[C@H]1CO` [UV-28], in data set [3] (40 mg/kg TID IG for 10 days), the “% Survival” value is recorded as 60% and the “Mean Survival” value is above 13 days. In data set [3] (100 mg/kg TID IG for 10 days), the “% Survival” value was determined as 100% and the “Mean Survival” value is above 13 days. Also, in data set [3] (FIG. 4), the “Health score recovery of infected mice” value was “never recovered their health score” and the “Toxicity compared (health scores)” value is recorded as “more toxic than UV-12”. For the same compound, the “Weight recovery of infected mice” value in data set [3] is listed as “did not recover their weight as well”.

Take `OCCCCCCCCCN1C[C@H](O)[C@@H](O)[C@H](O)[C@H]1CO` [UV-11]: in data set [1], the “Survival versus untreated/vehicle control group” value was “did not show any improvement in survival”, the MTD is given as 8 days and the Survival rate was 0%. Besides, in data set [2], the “Survival without a viral challenge” value was 100%.

As for `COCCCCCCCCC(=O)N1C[C@H](O)[C@@H](O)[C@H](O)[C@H]1CO` [UV-8], in data set [1], the “Survival versus untreated/vehicle control group” value is “did not show any improvement in survival; also recorded: no significant difference from the vehicle control group”, the MTD is listed as 10.5 days and the Survival rate is 30%. Also, the “Survival without a viral challenge” value in data set [2] was 100%.

For `OCC1C(O)C(O)C(O)CN1CCCCCCCCC1CCCO1` (mixture of isomers) [UV-12], in data set [3] (40 mg/kg TID IG for 10 days), the “% Survival” value was determined as 20% and the “Mean Survival” value stood at 9 days. In data set [3] (100 mg/kg TID IG for 10 days), the “% Survival” value is listed as 100% and the “Mean Survival” value is above 13 days. Besides, in data set [3] (FIG. 4), the “Health score recovery of infected mice” value is “fully recovered from the infection and returned to normal”. The “Weight recovery of infected mice” value in data set [3] was “almost completely recovered”. The “Survival compared to control animals” value in the data set on DENV2 Strain S221 was “increased survival”. Also, in data set [1], the “Survival versus untreated/vehicle control group” value is listed as “significant increase in survival” and the Survival rate came to 90%. Besides, the “Overall temperature and weight versus vehicle control” value in data set [1] (100 mg/kg oral TID, infected mice) is “significant increases in overall temperature and weight”. Also, in data set [2], the “Recovery after dosing regimen completed, uninfected mice” value is reported as “able to fully recover”; the “Toxicity in the uninfected group” value was “mild toxicity with steady weight loss”; the “Weight loss overall in uninfected mice” value is at most 10%; the “Survival without a viral challenge” value amounted to 100%.
